Experiments:
[1] = tested on: YAP-TEAD interaction; assay: SK-HEP-1 reporter assay (8xTEAD responsive elements driving NanoLuc luciferase); type: cell-based
Method in brief: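 Reporter read-out: NanoLuc luminescence from 8×TEAD elements stably integrated in SK-HEP-1 cells, after 24 h compound exposure at 37° C. Ten concentrations tested in duplicate, top 30 μM final, 0.3% DMSO; IC50 from curve.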

[2] = tested on: SW620 Yap KO cells; assay: Viability assay in SW620 Yap KO (Yap independent) cells, CyQuant; type: cell-based; settings: Homo sapiens, SW-620, 96 h
Protocol: (§1) Viability Assay in NCI-H226 (Yap-Dependent) and SW620 Yap KO (Yap Independent) Cells
(§2) The ability of YAP-TEAD inhibitors to inhibit tumor cell growth was evaluated using two different cell lines: NCI-H226, which is a YAP dependent cell line, and SW620 cells, where YAP and TAZ were knocked out using CRISPR to generate a YAP independent cell line.
(§3) For the assay, cells were treated in duplicates with the test compounds in a 10-point dose, 1:3 dilution steps, with the top concentration starting at 30 μM (final concentration in assay). After a 96 hour incubation at 37° C., 95% rH, and 5% CO2, a cell-permeant DNA-binding dye that stains only healthy cells (CyQUANT®, Promega) was added to the cells, allowing the quantification of cell viability.
(§4) Cell Media: The NCI-H226 cells were cultured in the following media: RPMI 1640, +10% FBS, +1× GlutaMAX, +10 mM HEPES, +0.5% Pen/Strep. The SW620-KO cells were cultured in the following media: DMEM/F-12, +10% FBS, +1× GlutaMAX, +10 mM HEPES, +0.5% Pen/Strep.
(§5) Reagents: The reagents used are listed below:
(§6) Cell culture: The cells were examined using an inverted microscope to check for health, cell density, etc. To dissociate adherent cells, the monolayer of cells was washed once with pre-warmed PBS. After removing the PBS, 3 ml pre-warmed Accutase was added to a F75 flask, dispersed evenly and the flask was allowed to sit in incubator for ˜4-5 minutes.
(§7) When a single cell suspension was obtained, 7 ml of prewarmed growth media was added and resuspended with the cells. The cell suspension was transferred to a sterile 15 ml conical centrifuge tube, and spun for 5 min at 300×g, RT. The supernatant was discarded and the pellet was resuspended in 10 ml of pre-warmed growth media.
(§8) The total cell count was determined, and 20 μl of the desired cell number was added to each well of a 384 well plate using a Multidrop Combi. The plates were then incubated for 24 hours at 37° C., 95% rH, and 5% CO2.
(§9) Compound treatment: 24 hours after seeding, the cells were treated with compounds.
(§10) A 1:333 dilution of compounds, diluted in DMSO, was made to get a final concentration of 0.3% DMSO per well. To transfer the compounds to the assay plate, […] was shot from Labcyte low dead volume plates to the cell plates containing 20 μl media/well with the ECHO 555 liquid handling system.
(§11) After treatment, the cells were fed with 20 μl fresh pre-warmed assay media using a Multidrop combi.
(§12) The assay plates were then incubated for 96 h at 37° C., 95% rH, and 5% CO2.
(§13) 96 h after treatment 30 μl of CyQuant® reagent was added to the assay plates using a Multidrop combi in the dark. The plates were then incubated for 1 hour at 37° C., 95% rH and 5% CO2. Thereafter, the assay plates were removed from the incubator and allowed to equilibrate to RT for 30 min in the dark without lid. Finally, they were measured using an EnVision microplate reader with a FITC bottom read program.

[3] = tested on: NCI-H226 cells; assay: Viability assay in NCI-H226 (Yap-dependent) cells, CyQuant; type: cell-based, human; settings: class symbols
Protocol: as §1, §2, §3, §4, §5, §6, §7, §8, §9, §10, §11, §12, §13

[4] = Homo sapiens, SK-HEP1, SK-HEP-1 reporter assay, class symbols
[5] = n.d. = value not detectable below threshold given in parentheses
[6] = Homo sapiens, SK-HEP1, SK-HEP-1 reporter assay, n.d. = value not detectable below threshold given in parentheses

SMILES | IC50 [1, 4] [nM] | IC50 [2, 5] [nM] | IC50 ([3]; Homo sapiens, NCI-H226, 96 h) [nM] | IC50 [1, 6] [nM] | IC50 ([2]; class symbols) [nM] | IC50 ([1]; SK-HEP-1 reporter assay, n.d. = value not detectable below threshold given in parentheses) [nM] | IC50 ([3]; 96 h) [nM]
Cn1nc2c3cc(C(=O)N=[S@@](C)(=O)CCO)ccc3n(-c3ccc(C(F)(F)F)cc3)c2n1 (single isomer, unassigned) [Example C191] | 10 to 100 | > 30000 | 1 to 100 |  |  |  | 
Cn1nc2c3cc(C(=O)N=S(C)(=O)CCO)ccc3n(-c3ccc(C(F)(F)F)cc3)c2n1 (single isomer, unassigned) [Example C192] | 10 to 100 | > 30000 | 1 to 100 |  |  |  | 
Cn1cc2c3cc(C(=O)N=[S@@](=O)(CCCO)Cc4cccnc4)ccc3n(-c3ccc(C(F)(F)F)cc3)c2n1 (single isomer, unassigned) [Example C199] |  | > 3000 | 100 to 1000 | > 95 |  |  | 
Cn1nc2c3cc(C(=O)N=[S@@](=O)(CCCO)Cc4cccnc4)ccc3n(-c3ccc(C(F)(F)F)cc3)c2n1 (single isomer, unassigned) [Example C200] |  | > 3000 | 100 to 1000 | > 9500 |  |  | 
Cn1cc2c3cc(C(=O)N=[S@](=O)(CCCO)Cc4cccnc4)ccc3n(-c3ccc(C(F)(F)F)cc3)c2n1 (single isomer, unassigned) [Example C201] |  |  | 100 to 1000 | > 300 | 1000 to 10000 |  | 
Cn1nc2c3cc(C(=O)N=[S@](=O)(CCCO)Cc4cccnc4)ccc3n(-c3ccc(C(F)(F)F)cc3)c2n1 (single isomer, unassigned) [Example C202] |  | > 3000 | 100 to 1000 | > 300 |  |  | 
Cn1cc2c3cc(C(=O)N=[S@@](=O)(CCCO)Cc4ccccn4)ccc3n(-c3ccc(C(F)(F)F)cc3)c2n1 (single isomer, unassigned) [Example C210] |  | > 3000 | 100 to 1000 | > 95 |  |  | 
Cn1cc2c3cc(C(=O)N=[S@](=O)(CCCO)Cc4ccccn4)ccc3n(-c3ccc(C(F)(F)F)cc3)c2n1 (single isomer, unassigned) [Example C213] |  | > 3000 |  |  |  | > 300 | 1 to 100
C[C@H](NC(=O)c1ccc2c(c1)c1cn(C)nc1n2-c1ccc(C(F)(F)F)cc1)c1cccc(N)n1 (single isomer, unassigned) [Example C214] | 10 to 100 | > 3000 | 1 to 100 |  |  |  | 
Cn1cc2c3cc(C(=O)N=[S@@](=O)(CCCO)Cc4ccncc4)ccc3n(-c3ccc(C(F)(F)F)cc3)c2n1 (single isomer, unassigned) [Example C231] |  | > 3000 | 100 to 1000 | > 300 |  |  | 
Cn1cc2c3cc(C(=O)N=[S@](=O)(CCCO)Cc4ccncc4)ccc3n(-c3ccc(C(F)(F)F)cc3)c2n1 (single isomer, unassigned) [Example C236] |  | > 3000 | 1 to 100 | > 95 |  |  | 
Cn1nc2c3cc(C(=O)N=[S@@](=O)(CCCO)Cc4ccccn4)ccc3n(-c3ccc(C(F)(F)F)cc3)c2n1 (single isomer, unassigned) [Example C237] |  | > 3000 | 1 to 100 | > 3000 |  |  | 
Cn1cc2c3cc(C(=O)N[C@@H](CCO)c4ccccn4)ccc3n(-c3ccc(C(F)(F)F)cc3)c2n1 (single isomer, unassigned) [Example C240] | 10 to 100 | > 3000 | 1 to 100 |  |  |  | 
